Source: BindingDB's records for doi:10.1021/jm101401a (Sanford-Burnham Medical Research Institute, 2011)

Target: T1, Mannose-6-phosphate isomerase (Homo sapiens, UniProt P34949)
T1 sequence (P34949 whole entry): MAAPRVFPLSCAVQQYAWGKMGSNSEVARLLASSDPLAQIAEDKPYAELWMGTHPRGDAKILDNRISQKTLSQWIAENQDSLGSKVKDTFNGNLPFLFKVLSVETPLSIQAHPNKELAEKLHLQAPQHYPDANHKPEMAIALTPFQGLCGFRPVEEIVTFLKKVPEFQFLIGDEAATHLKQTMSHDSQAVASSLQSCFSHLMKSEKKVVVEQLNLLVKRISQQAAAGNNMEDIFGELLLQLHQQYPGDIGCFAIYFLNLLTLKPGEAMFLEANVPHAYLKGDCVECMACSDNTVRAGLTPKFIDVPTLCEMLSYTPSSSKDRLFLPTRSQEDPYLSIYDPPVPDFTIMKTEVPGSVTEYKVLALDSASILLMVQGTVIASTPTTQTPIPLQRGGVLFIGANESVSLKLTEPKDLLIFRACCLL
Experiment: Inhibition of human purified phosphomannose isomerase

With C=CCn1c(=O)c(=Cc2cc(OC)c(OC)c(OC)c2)s/c1=C(/C#N)c1nc2ccccc2n1C [2-(1-methyl-2-benzimidazolyl)-2-[4-oxo-3-prop-2-enyl-5-[(3,4,5-trimethoxyphenyl)methylidene]-2-thiazolidinylidene]acetonitrile] as the compound, how does the IC50 read?
Its IC50 is > 10 µM.

How did the IC50 turn out when Oc1c(-c2ccccc2)sc2ccccc12 [2-phenyl-1-benzothiophen-3-one] was run?
The IC50 was > 10 µM.
